Source: the supplement of paper PMC10307832

Legend:
Experiment in all cases: relative viability (nuclei count vs DMSO), 5 days (fraction); higher = more cells survive
[1] = compound: C#Cc1cccc(Nc2ncnc3cc(OC)c(OCCCCCCC(=O)NO)cc23)c1 [CUDC-101] + CCNC(=O)c1noc(-c2cc(C(C)C)c(O)cc2O)c1-c1ccc(CN2CCOCC2)cc1 [Luminespib] (partner 0.01 µM)
How it was run: (§1)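 Lung cancer cell lines, seeded in 1536-well plates, were treated the following day by pin tool with a single drug or with five library-drug doses (not always all listed) in √10 steps on top of a fixed anchor-drug dose. Cells were fixed and nuclei stained in one step after 5 days, and nuclei were counted. Relative viability is the nuclei count for treated wells divided by that for vehicle wells, reported as medians of duplicate plates.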

[2] = compound: C1=CC=C2C(=C1)N=C(S2)C(C#N)C3=NC(=NC=C3)NCCC4=CN=CC=C4 + CS(=O)(=O)N1CCN(Cc2cc3nc(-c4cccc5[nH]ncc45)nc(N4CCOCC4)c3s2)CC1 [Pictilisib] (partner 1 µM)
How it was run: as §1

[3] = compound: C1=CC=C2C(=C1)N=C(S2)C(C#N)C3=NC(=NC=C3)NCCC4=CN=CC=C4 + NC(=O)Nc1cc(-c2cccc(F)c2)sc1C(=O)N[C@H]1CCCNC1 [AZD7762] (partner 0.2 µM)
How it was run: as §1

[4] = compound: COc1cc(N2CCC(N3CCN(C)CC3)CC2)ccc1Nc1ncc(Cl)c(Nc2ccccc2S(=O)(=O)C(C)C)n1 [NVP-TAE684] + Nc1nc2[nH]cc(CCc3ccc(C(=O)N[C@@H](CCC(=O)O)C(=O)O)cc3)c2c(=O)[nH]1 [Pemetrexed] (partner 0.2 µM)
How it was run: as §1

Row | Cell Line | relative viability ([1]; first compound 0.01 µM) | relative viability ([1]; first compound 0.03162 µM) | relative viability ([1]; first compound 0.1 µM) | relative viability ([1]; first compound 0.3162 µM) | relative viability ([1]; first compound 1 µM) | relative viability ([2]; first compound 0.01581 µM) | relative viability ([2]; first compound 0.05 µM) | relative viability ([2]; first compound 0.1581 µM) | relative viability ([2]; first compound 0.5 µM) | relative viability ([3]; first compound 0.01581 µM) | relative viability ([3]; first compound 0.05 µM) | relative viability ([3]; first compound 0.1581 µM) | relative viability ([3]; first compound 0.5 µM) | relative viability ([4]; first compound 0.2 µM) | relative viability ([4]; first compound 0.6325 µM) | relative viability ([4]; first compound 2 µM) | relative viability ([2]; first compound 0.005 µM) | relative viability ([3]; first compound 0.005 µM)
1 | NCI-H1792 | 0.459 | 0.381 | 0.578 | 0.504 | 0.25 | 0.312 | 0.285 | 0.246 | 0.225 | 0.631 | 0.8 | 1.28 | 0.37 | 0.773 | 0.799 | 0.799 | – | –
2 | NCI-H1355 | 0.729 | 0.741 | 0.694 | 0.676 | 0.586 | 0.388 | 0.365 | 0.503 | 0.439 | 0.698 | 0.675 | 0.967 | 0.559 | 1.01 | 0.984 | 0.793 | 0.535 | 0.702
3 | HCC-827 | 0.531 | 0.241 | 0.278 | 0.217 | 0.197 | 0.912 | 0.864 | 1.25 | 1.09 | 0.176 | 0.225 | 0.235 | 0.19 | 0.259 | 0.262 | 0.261 | 0.982 | 0.201
4 | NCI-H1944 | 0.757 | 0.545 | 0.732 | 0.565 | 0.53 | 0.33 | 0.355 | 0.362 | 0.319 | 0.557 | 0.603 | 0.466 | 0.456 | 0.705 | 0.585 | 0.631 | 0.369 | 0.541
5 | NCI-H2405 | 0.797 | 0.662 | 0.703 | 0.917 | 0.741 | 0.378 | 0.397 | 0.506 | 0.422 | 0.66 | 0.832 | 0.829 | 0.48 | 1.17 | 0.901 | 0.567 | 0.456 | 0.705
